Assay results: patent EP4488269A1, “TRIAZOLE COMPOUNDS FOR THE CONTROL OF INVERTEBRATE PESTS” (BASF SE, priority 2023, dated 2025)

Legend:
Type in all cases: in vivo
[1] = system: Southern armyworm (Spodoptera eridania), 2nd instar larvae; assay: Southern armyworm foliar spray test on lima bean plants; settings: 96 h, 4 days after treatment, read-out: mortality in comparison with untreated controls
Description: B.4. Southern armyworm (Spodoptera eridania), 2nd instar larvae
The active compounds were formulated by a Tecan liquid handler in 100% cyclohexanone as a 10,000-ppm solution supplied in tubes. The 10,000-ppm solution was serially diluted in 100% cyclohexanone to make interim solutions. These served as stock solutions for which final dilutions were made by the Tecan in 50% acetone:50% water (v/v) into 10 or 20ml glass vials. A non-ionic surfactant (Kinetic®) was included in the solution at a volume of 0.01% (v/v). The vials were then inserted into an automated electrostatic sprayer equipped with an atomizing nozzle for application to plants/insects. Lima bean plants (variety Sieva) were grown 2 plants to a pot and selected for treatment at the 1st true leaf stage. Test solutions were sprayed onto the foliage by an automated electrostatic plant sprayer equipped with an atomizing spray nozzle. The plants were dried in the sprayer fume hood and then removed from the sprayer. Each pot was placed into perforated plastic bags with a zip closure. Ten to 11 armyworm larvae were placed into the bag and the bags zipped closed. Test plants were maintained in a growth room at about 25°C and about 20-40% relative humidity for 4 days, avoiding direct exposure to fluorescent light (14:10 light:dark photoperiod) to prevent trapping of heat inside the bags. Mortality and reduced feeding were assessed 4 days after treatment, compared to untreated control plants.

[2] = system: yellow fever mosquito (Aedes aegypti); assay: whole plant or invertebrate; settings: 48 h, larval mortality, 2 days, read-out: mortality in comparison with untreated controls
Description: B.5 Yellow fever mosquito (Aedes aegypti)
For evaluating control of yellow fever mosquito (Aedes aegypti) the test unit consisted of 96-well-microtiter plates containing 200µl of tap water per well and 5-15 freshly hatched A. aegypti larvae.
The active compounds were formulated using a solution containing 75% (v/v) water and 25% (v/v) DMSO. Different concentrations of formulated compounds or mixtures were sprayed onto the insect diet at 2.5µl, using a custom-built micro atomizer, at two replications.
After application, microtiter plates were incubated at 28 ± 1°C, 80 ± 5 % RH for 2 days. Larval mortality was then visually assessed.

[3] = system: boll weevil (Anthonomus grandis); assay: Boll weevil control (insect diet with eggs, 96-well plates); settings: 120 h, egg and larval mortality, 5 days, read-out: mortality in comparison with untreated controls
Description: B.3 Boll weevil (Anthonomus grandis)
For evaluating control of boll weevil (Anthonomus grandis), the test unit consisted of 96-well-microtiter plates containing an insect diet and 5-10 A. grandis eggs.
The compounds were formulated using a solution containing 75% v/v water and 25% v/v DMSO. Different concentrations of formulated compounds were sprayed onto the insect diet at 5µl, using a custom-built micro atomizer, at two replications.
After application, microtiter plates were incubated at about 25 ± 1°C and about 75 ± 5 % relative humidity for 5 days. Egg and larval mortality was then visually assessed.

[4] = system: green peach aphid (Myzus persicae); assay: Green peach aphid control through systemic means (artificial diet, 96-well plates); settings: 72 h, adult aphids on treated diet, 3 days, read-out: mortality in comparison with untreated controls
Description: B.1 Green Peach Aphid (Myzus persicae)
For evaluating control of green peach aphid (Myzus persicae) through systemic means, the test unit consisted of 96-well-microtiter plates containing liquid artificial diet under an artificial mem brane.
The compounds were formulated using a solution containing 75% v/v water and 25% v/v DMSO. Different concentrations of formulated compounds were pipetted into the aphid diet, using a custom built pipetter, at two replications.
After application, 5 - 8 adult aphids were placed on the artificial membrane inside the microtiter plate wells. The aphids were then allowed to suck on the treated aphid diet and incubated at about 23 ± 1°C and about 50 ± 5 % relative humidity for 3 days. Aphid mortality and fecundity was then visually assessed.

[5] = system: tobacco budworm (Heliothis virescens); assay: Tobacco budworm control (insect diet with eggs, 96-well plates); settings: for mortality at 2500 ppm: 120 h, egg and larval mortality, 5 days, read-out: mortality in comparison with untreated controls; for mortality at 25 ppm: test B.2, 25 ppm, comparison with prior art, read-out: % mortality in comparison to untreated controls
Description: B.2 Tobacco budworm (Heliothis virescens)
For evaluating control of tobacco budworm (Heliothis virescens), the test unit consisted of 96-well-microtiter plates containing an insect diet and 15-25 H. virescens eggs.
The compounds were formulated using a solution containing 75% v/v water and 25% v/v DMSO. Different concentrations of formulated compounds were sprayed onto the insect diet at 10µl, using a custom-built micro atomizer, at two replications.
After application, microtiter plates were incubated at about 28 ± 1°C and about 80 ± 5 % relative humidity for 5 days. Egg and larval mortality was then visually assessed.

| SMILES | mortality at 300 ppm [1] [%] | mortality at 2500 ppm [2] [%] | mortality at 2500 ppm [3] [%] | mortality at 2500 ppm [4] [%] | mortality at 2500 ppm [5] [%] | mortality at 25 ppm [5] [%] |
| --- | --- | --- | --- | --- | --- | --- |
| CC(NC(=O)c1cc(C(F)(F)F)cc(C(F)(F)F)c1)c1nccnc1-c1ncn(-c2cccnc2)n1 (stereo not drawn) [Compound I-1, N-[1-[3-[1-(3-pyridyl)-1,2,4-triazol-3-yl]pyrazin-2-yl]ethyl]-3,5-bis(trifluoromethyl)benzamide] | ≥ 75 | ≥ 75 | ≥ 75 | ≥ 75 | ≥ 75 | – |
| CC(NC(=O)c1cc(C(F)(F)F)cc(C(F)(F)F)c1)c1nccnc1-c1ncn(-c2cccnc2N)n1 (stereo not drawn) [Compound I-2, N-[1-[3-[1-(2-amino-3-pyridyl)-1,2,4-triazol-3-yl]pyrazin-2-yl]ethyl]-3,5-bis(trifluoromethyl)benzamide] | ≥ 75 | ≥ 75 | ≥ 75 | ≥ 75 | ≥ 75 | – |
| CC(NC(=O)c1cc(C(F)(F)F)cc(C(F)(F)F)c1)c1nccnc1-c1ncn(-c2cccnc2[N+](=O)[O-])n1 (stereo not drawn) [Compound I-3, N-[1-[3-[1-(2-nitro-3-pyridyl)-1,2,4-triazol-3-yl]pyrazin-2-yl]ethyl]-3,5-bis(trifluoromethyl)benzamide] | ≥ 75 | – | ≥ 75 | – | ≥ 75 | – |
| CC(NC(=O)c1cc(C(F)(F)F)cc(C(F)(F)F)c1)c1nccnc1-c1ncn(-c2cccnc2Br)n1 (stereo not drawn) [Compound I-4, N-[1-[3-[1-(2-bromo-3-pyridyl)-1,2,4-triazol-3-yl]pyrazin-2-yl]ethyl]-3,5-bis(trifluoromethyl)benzamide] | ≥ 75 | ≥ 75 | ≥ 75 | ≥ 75 | ≥ 75 | – |
| CC(NC(=O)c1cc(C(F)(F)F)cc(C(F)(F)F)c1)c1nccnc1-c1ncn(-c2ccccn2)n1 (stereo not drawn) [Compound I-6, N-[1-[3-[1-(2-pyridyl)-1,2,4-triazol-3-yl]pyrazin-2-yl]ethyl]-3,5-bis(trifluoromethyl)benzamide] | ≥ 75 | ≥ 75 | ≥ 75 | ≥ 75 | ≥ 75 | 100 |
| CC(c1nccnc1-c1ncn(-c2ccccn2)n1)N(C)C(=O)c1cc(C(F)(F)F)cc(C(F)(F)F)c1 (stereo not drawn) [Compound I-17, N-methyl-N-[1-[3-[1-(2-pyridyl)-1,2,4-triazol-3-yl]pyrazin-2-yl]ethyl]-3,5-bis(trifluoromethyl)benzamide] | ≥ 75 | ≥ 75 | ≥ 75 | ≥ 75 | ≥ 75 | – |
| CC(NC(=O)c1cc(C(F)(F)F)cc(C(F)(F)F)c1)c1nccnc1-c1ncn(C)n1 (stereo not drawn) [WO2023/025617 I1-12, reference compound] | – | – | – | – | – | 31 |
